Where “and” joins values, the source holds several entries; their conditions need not be identical. Identical values can stand only once.
Columns and labels:
[1] = biological target: LacB1 sensor, GFP^2-BgaR-RLuc8 fusion protein, SEQ ID NO: 15 (BgaR from Clostridium perfringins strain 13, SEQ ID NO: 1) (Clostridium perfringens, UniProt Q8XMB9); assay: biochemical; format: binding
[2] = biological target: LacF1 sensor, His6-CFP-BgaR-YFP fusion protein, SEQ ID NO: 23 (BgaR from Clostridium perfringins strain 13, SEQ ID NO: 1) (Clostridium perfringens, UniProt Q8XMB9); format: binding

SMILES: OC[C@H]1OC(O)[C@H](O)[C@@H](O)[C@@H]1O (some centres unmarked) [glucose]
- change in BRET^2 ratio [1]: 9% and 6%

SMILES: OC[C@H]1OC(O)[C@H](O)[C@@H](O)[C@H]1O (some centres unmarked) [galactose]
- change in BRET^2 ratio [1]: 3% and 13%

SMILES: OC[C@H]1O[C@@H](O[C@@H]2[C@@H](CO)OC(O)(CO)[C@H]2O)[C@H](O)[C@@H](O)[C@H]1O (stereo partly drawn) [lactulose, 4-O-β-D-galactosyl-D-fructose]
- affinity of LacB1 for lactulose weaker than for lactose [1]: approximately 150 fold
- change in BRET^2 ratio [1]: approximately 21%
- difference in EC50 between lactose and lactulose [1]: 200 fold
- limit of detection (LOD), lactulose [1]: 0.1 mM
- limit of detection for lactulose higher than for lactose [1]: 100 fold
- EC50 ([1]; EC50 (lactulose)): 2400 ± 200 µM

SMILES: OC[C@H]1O[C@@H](O[C@H]2[C@H](O)[C@@H](O)C(O)O[C@@H]2CO)[C@H](O)[C@@H](O)[C@H]1O (stereo partly drawn) [lactose, β-D-galactosyl-(1→4)-D-glucose]
- RET ratio in the presence of lactose [2]: 1.089±0.004
- decrease in RET ratio [2]: 10%
- RET ratio in the presence of lactose [1]: 0.800±0.003
- change in BRET^2 ratio [1]: approximately 35%
- drop in RET ratio [1]: 27%
- EC50 ([1]; EC50 (lactose)): 12 µM and 21 µM and 11 to 14 µM and 18 to 23 µM

From patent US11662349B2, “Carbohydrate sensors” (Commonwealth Scientific and Industrial Research Organisation, priority 2017, dated 2023)
